Assay results as given in BindingDB's records for doi:10.1016/s0960-894x(02)01027-2 (Glaxosmithkline, 2003).

How the values were obtained:
[1] = target: Methionine--tRNA ligase (Staphylococcus aureus); assay: Compound tested for inhibition of Staphylococcus aureus MRS(methionyl tRNA synthetase) in aminoacylation assay
[2] = target: Methionine--tRNA ligase (Staphylococcus aureus); assay: as above; remark: listed apart in the source

Row | IC50 [1] [nM] | IC50 [2] [nM] | Structure (SMILES)
1 | < 3 | – | Oc1cc(NCCCNCc2cc(Cl)cc(Cl)c2Cl)nc2ccccc12
2 | < 3 | – | Oc1cc(NCCCNCc2cc(Br)cc(Br)c2)nc2ccccc12
3 | – | 11 | Oc1cc(NCCCNCc2cc(Br)cc(Br)c2OCC(F)(F)F)nc2ccccc12 [2-{3-[3,5-Dibromo-2-(2,2,2-trifluoro-ethoxy)-benzylamino]-propylamino}-1H-quinolin-4-one]
4 | – | 3 | Oc1cc(NCCCNCc2cc(Cl)cc(Cl)c2)nc2ccccc12 [2-[3-(3,5-Dichloro-benzylamino)-propylamino]-1H-quinolin-4-one]
5 | < 3 | – | CCOc1c(I)cc(I)cc1CNCCCNc1cc(O)c2ccccc2n1
6 | – | 4.4 | CCOc1c(Br)cc(Br)cc1CNCCCNc1cc(O)c2ccccc2n1 [2-[3-(3,5-Dibromo-2-ethoxy-benzylamino)-propylamino]-1H-quinolin-4-one]
7 | – | 4.7 | CCOc1c(Br)cc(SC)cc1CNCCCNc1cc(O)c2ccccc2n1 [2-[3-(3-Bromo-2-ethoxy-5-methylsulfanyl-benzylamino)-propylamino]-1H-quinolin-4-one]
